Measured values: patent publication US9102701B2, “17-hydroxy-17-pentafluoroethyl-estra-4,9(10)-diene-11-ethynylphenyl derivatives, methods for the production thereof and use thereof for treating diseases” (Bayer Intellectual Property GmbH, priority 2009, dated 2015)
Where two headings read alike, the source gives them in different places.

How the values were obtained:
[1] = biological target: T1, human progesterone receptor A (Homo sapiens, UniProt P06401); assay: Progesterone receptor-antagonistic action in stably transfected SK-N-MC cells, PR-A, MMTV-LUC reporter; assay type: cell-based; conditions: read-out: IC50 PR-A
T1 construct: expressed in transfected cells; host or cells: SK-N-MC human neuroblastoma cells, stably transfected with pRChPR-A-neo and pMMTV-LUC
T1 sequence (P06401 1-769 isoform P06401-2): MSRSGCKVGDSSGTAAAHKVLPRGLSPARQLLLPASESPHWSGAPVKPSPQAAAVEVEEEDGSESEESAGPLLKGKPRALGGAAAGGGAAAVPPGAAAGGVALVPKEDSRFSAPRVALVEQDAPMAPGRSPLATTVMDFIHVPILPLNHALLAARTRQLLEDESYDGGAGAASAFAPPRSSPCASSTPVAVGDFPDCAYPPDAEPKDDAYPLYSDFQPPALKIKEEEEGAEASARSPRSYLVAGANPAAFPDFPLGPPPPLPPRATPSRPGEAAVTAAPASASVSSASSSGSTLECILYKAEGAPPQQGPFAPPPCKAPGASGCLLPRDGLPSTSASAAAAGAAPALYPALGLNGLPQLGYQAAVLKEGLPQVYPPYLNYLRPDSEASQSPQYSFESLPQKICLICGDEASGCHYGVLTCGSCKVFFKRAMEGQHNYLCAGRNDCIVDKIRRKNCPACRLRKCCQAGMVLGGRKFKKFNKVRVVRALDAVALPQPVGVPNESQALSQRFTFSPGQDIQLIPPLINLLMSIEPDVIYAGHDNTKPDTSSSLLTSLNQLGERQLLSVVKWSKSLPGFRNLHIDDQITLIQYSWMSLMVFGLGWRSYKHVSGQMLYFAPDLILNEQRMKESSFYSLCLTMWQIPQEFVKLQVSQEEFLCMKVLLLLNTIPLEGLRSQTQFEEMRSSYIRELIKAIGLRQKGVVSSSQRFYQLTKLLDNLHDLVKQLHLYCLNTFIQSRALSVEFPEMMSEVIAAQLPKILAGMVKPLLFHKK
How it was run: (§1)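 SK-N-MC neuroblastoma cells stably expressing human PR-A or PR-B plus MMTV-LUC reporter, treated 24 h with compound (0.01 nmol/l upward). Antagonism measured against 0.1 nmol/l promegestone; luciferase in lysates as RLU, given as % efficacy and IC50 (agonism as EC50).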

[2] = biological target: T2, human progesterone receptor B (Homo sapiens, UniProt P06401); assay: Progesterone receptor-antagonistic action in stably transfected SK-N-MC cells, PR-B, MMTV-LUC reporter; assay type: cell-based; conditions: read-out: IC50 PR-B
T2 construct: expressed in transfected cells; host or cells: SK-N-MC human neuroblastoma cells, stably transfected with pRChPR-B-neo and pMMTV-LUC
T2 sequence (P06401 1-933): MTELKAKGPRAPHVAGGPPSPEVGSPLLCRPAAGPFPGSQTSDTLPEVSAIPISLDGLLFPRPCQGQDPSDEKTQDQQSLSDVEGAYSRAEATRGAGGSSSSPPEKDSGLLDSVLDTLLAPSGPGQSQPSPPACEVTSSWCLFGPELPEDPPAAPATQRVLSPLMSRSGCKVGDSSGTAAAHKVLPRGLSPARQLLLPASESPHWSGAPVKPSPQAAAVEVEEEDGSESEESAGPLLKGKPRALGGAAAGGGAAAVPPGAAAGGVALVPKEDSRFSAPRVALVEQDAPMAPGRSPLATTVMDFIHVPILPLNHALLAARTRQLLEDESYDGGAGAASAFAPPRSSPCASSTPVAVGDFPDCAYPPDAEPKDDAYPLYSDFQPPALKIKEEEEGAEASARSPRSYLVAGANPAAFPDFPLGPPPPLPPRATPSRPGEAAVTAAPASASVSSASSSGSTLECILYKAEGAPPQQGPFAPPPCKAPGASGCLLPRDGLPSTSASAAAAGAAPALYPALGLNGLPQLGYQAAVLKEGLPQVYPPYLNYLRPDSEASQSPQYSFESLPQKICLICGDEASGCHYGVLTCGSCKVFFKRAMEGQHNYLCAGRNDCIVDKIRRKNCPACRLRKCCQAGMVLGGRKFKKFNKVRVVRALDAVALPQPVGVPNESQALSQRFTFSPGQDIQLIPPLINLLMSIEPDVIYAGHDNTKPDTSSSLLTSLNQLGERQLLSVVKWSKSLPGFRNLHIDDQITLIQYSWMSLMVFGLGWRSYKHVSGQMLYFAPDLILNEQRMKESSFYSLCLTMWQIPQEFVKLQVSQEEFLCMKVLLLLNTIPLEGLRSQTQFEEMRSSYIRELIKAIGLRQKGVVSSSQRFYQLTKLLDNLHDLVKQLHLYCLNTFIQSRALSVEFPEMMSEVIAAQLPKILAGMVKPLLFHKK
How it was run: as §1

SMILES	IC50 [1]	IC50 [2]	IC50 ([1]; antagonistic potency vs 0.1 nmol/l promegestone, SK-N-MC cells, 24 hours)
C[C@]12C[C@H](c3ccc(C#CCOC(=O)Nc4ccccc4)cc3)C3=C4CCC(=O)C=C4CCC3C1CC[C@@]2(O)C(F)(F)C(F)(F)F (stereo partly drawn) [Example 46, phenylcarbamic acid 3-[4-((8S,11R,13S,14S,17S)-17-hydroxy-13-methyl-3-oxo-17-pentafluoroethyl-2,3,6,7,8,11,12,13,14,15,16,17-dodecahydro-1H-cyclopenta[a]phenanthren-1′-yl)phenyl]prop-2-ynyl ester]	0.01 nM	0.01 nM	–
Cc1ccc(NC(=O)OCC#Cc2ccc([C@H]3C[C@@]4(C)C(CC[C@@]4(O)C(F)(F)C(F)(F)F)C4CCC5=CC(=O)CCC5=C43)cc2)cc1 (stereo partly drawn) [Example 47, 4-methylphenylcarbamic acid 3-[4-((8S,11R,13S,14S,17S)-17-hydroxy-13-methyl-3-oxo-17-pentafluoroethyl-2,3,6,7,8,11,12,13,14,15,16,17-dodecahydro-1H-cyclopenta[a]phenanthren-1′-yl)phenyl]prop-2-ynyl ester]	0.01 nM	0.01 nM	–
C[C@]12C[C@H](c3ccc(C#CCOC(=O)Nc4ccc(F)cc4)cc3)C3=C4CCC(=O)C=C4CCC3C1CC[C@@]2(O)C(F)(F)C(F)(F)F (stereo partly drawn) [Example 48, 4-fluorophenylcarbamic acid 3-[4-((8S,11R,13S,14S,17S)-17-hydroxy-13-methyl-3-oxo-17-pentafluoroethyl-2,3,6,7,8,11,12,13,14,15,16,17-dodecahydro-1H-cyclopenta[a]phenanthren-1′-yl)phenyl]prop-2-ynyl ester]	0.09 nM	0.08 nM	–
CC(C)NC(=O)OCC#Cc1ccc([C@H]2C[C@@]3(C)C(CC[C@@]3(O)C(F)(F)C(F)(F)F)C3CCC4=CC(=O)CCC4=C32)cc1 (stereo partly drawn) [Example 49, isopropylcarbamic acid 3-[4-((8S,11R,13S,14S,17S)-17-hydroxy-13-methyl-3-oxo-17-pentafluoroethyl-2,3,6,7,8,11,12,13,14,15,16,17-dodecahydro-1H-cyclopenta[a]phenanthren-1′-yl)phenyl]prop-2-ynyl ester]	0.01 nM	0.07 nM	–
C[C@]12C[C@H](c3ccc(C#CCOC(=O)NCc4ccccc4)cc3)C3=C4CCC(=O)C=C4CCC3C1CC[C@@]2(O)C(F)(F)C(F)(F)F (stereo partly drawn) [Example 50, benzylcarbamic acid 3-[4-((8S,11R,13S,14S,17S)-17-hydroxy-13-methyl-3-oxo-17-pentafluoroethyl-2,3,6,7,8,11,12,13,14,15,16,17-dodecahydro-1H-cyclopenta[a]phenanthren-1′-yl)phenyl]prop-2-ynyl ester]	0.01 nM	0.03 nM	–

The next lines start with the values.

IC50 [1]	IC50 [2]	IC50 ([1]; antagonistic potency vs 0.1 nmol/l promegestone, SK-N-MC cells, 24 hours)	SMILES
0.08 nM	0.1 nM	–	C[C@]12C[C@H](c3ccc(C#Cc4cccc(S(C)(=O)=O)c4)cc3)C3=C4CCC(=O)C=C4CC[C@H]3[C@@H]1CC[C@@]2(O)C(F)(F)C(F)(F)F [Example 51, (8S,11R,13S,14S,17S)-17-hydroxy-11-[4-(3-methanesulphonylphenylethynyl)phenyl]-13-methyl-17-pentafluoroethyl-1,2,6,7,8,11,12,13,14,15,16,17-dodecahydrocyclopenta[a]phenanthren-3-one]
0.01 nM	0.07 nM	–	COc1ccc(NC(=O)OCC#Cc2ccc([C@H]3C[C@@]4(C)C(CC[C@@]4(O)C(F)(F)C(F)(F)F)C4CCC5=CC(=O)CCC5=C43)cc2)cc1 (stereo partly drawn) [Example 52, 4-methoxyphenylcarbamic acid 3-[4-((8S,11R,13S,14S,17S)-17-hydroxy-13-methyl-3-oxo-17-pentafluoroethyl-2,3,6,7,8,11,12,13,14,15,16,17-dodecahydro-1H-cyclopenta[a]phenanthren-1′-yl)phenyl]prop-2-ynyl ester]
0.16 nM	0.19 nM	–	CCOC(=O)c1ccc(NC(=O)OCC#Cc2ccc([C@H]3C[C@@]4(C)[C@@H](CC[C@@]4(O)C(F)(F)C(F)(F)F)[C@@H]4CCC5=CC(=O)CCC5=C43)cc2)cc1 [Example 53, 4-{3-[4-((8S,11R,13S,14S,17S)-17-hydroxy-13-methyl-3-oxo-17-pentafluoroethyl-2,3,6,7,8,11,12,13,14,15,16,17-dodecahydro-1H-cyclopenta[a]phenanthren-11-yl)phenyl]prop-2-ynyloxycarbonylamino}benzoic acid ethyl ester]
0.1 nM	0.09 nM	–	C[C@]12C[C@H](c3ccc(C#CCOC(=O)Nc4ccc(N5CCCCC5)cc4)cc3)C3=C4CCC(=O)C=C4CCC3C1CC[C@@]2(O)C(F)(F)C(F)(F)F (stereo partly drawn) [Example 54, (4-piperidin-1-ylphenyl)carbamic acid 3-[4-((8S,11R,13S,14S,17S)-17-hydroxy-13-methyl-3-oxo-17-pentafluoroethyl-2,3,6,7,8,11,12,13,14,15,16,17-dodecahydro-1H-cyclopenta[a]phenanthren-1′-yl)phenyl]prop-2-ynyl ester]
0.26 nM	0.2 nM	–	C[C@]12C[C@H](c3ccc(C#CCOC(=O)Nc4ccc(Cl)cc4)cc3)C3=C4CCC(=O)C=C4CCC3C1CC[C@@]2(O)C(F)(F)C(F)(F)F (stereo partly drawn) [Example 55, 4-chlorophenylcarbamic acid 3-[4-((8S,11R,13S,14S,17S)-17-hydroxy-13-methyl-3-oxo-17-pentafluoroethyl-2,3,6,7,8,11,12,13,14,15,16,17-dodecahydro-1H-cyclopenta[a]phenanthren-1′-yl)phenyl]prop-2-ynyl ester]
–	0.08 nM	0.01 nM	C[C@]12C[C@H](c3ccc(C#Cc4ccc(S(C)(=O)=O)cc4)cc3)C3=C4CCC(=O)C=C4CC[C@H]3[C@@H]1CC[C@@]2(O)C(F)(F)C(F)(F)F [Example 56, (8S,11R,13S,14S,17S)-17-hydroxy-11-[4-(4-methanesulphonylphenylethynyl)phenyl]-13-methyl-17-pentafluoroethyl-1,2,6,7,8,11,12,13,14,15,16,17-dodecahydrocyclopenta[a]phenanthren-3-one]
0.01 nM	0.08 nM	–	C[C@]12C[C@H](c3ccc(C#CCOC(=O)Nc4cccnc4)cc3)C3=C4CCC(=O)C=C4CC[C@H]3[C@@H]1CC[C@@]2(O)C(F)(F)C(F)(F)F [Example 57, 3-pyridylcarbamic acid 3-[4-((8S,11R,13S,14S,17S)-17-hydroxy-13-methyl-3-oxo-17-pentafluoroethyl-2,3,6,7,8,11,12,13,14,15,16,17-dodecahydro-1H-cyclopenta[a]phenanthren-1′-yl)phenyl]prop-2-ynyl ester]
0.09 nM	0.01 nM	–	CC(C)(C)NC(=O)OCC#Cc1ccc([C@H]2C[C@@]3(C)C(CC[C@@]3(O)C(F)(F)C(F)(F)F)C3CCC4=CC(=O)CCC4=C32)cc1 (stereo partly drawn) [Example 58, tert-butylcarbamic acid 3-[4-((8S,11R,13S,14S,17S)-17-hydroxy-13-methyl-3-oxo-17-pentafluoroethyl-2,3,6,7,8,11,12,13,14,15,16,17-dodecahydro-1H-cyclopenta[a]phenanthren-1′-yl)phenyl]prop-2-ynyl ester]
